From PubChem BioAssay (NCI)
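96-well plates; 48 h exposure; 5 concentrations. Endpoints by linear interpolation between flanking doses. Not reached: highest tested concentration assigned. Here, GI50 denotes the concentration required for 50% inhibition of growth. Definition used: TGI = concentration required for complete inhibition of growth.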

Columns and labels:
Test in all cases: NCI anticancer screen, dose series, 48 h
[1] = test system: SR leukemia
[2] = test system: OVCAR-5 ovarian
[3] = test system: HOP-92 NSCLC
[4] = test system: SK-MEL-28 melanoma
[5] = test system: PC-3 prostate
[6] = test system: MDA-MB-435
[7] = test system: HS 578T breast
[8] = test system: IGROV1 ovarian
[9] = test system: LOX IMVI melanoma
[10] = test system: SF-268 CNS
[11] = test system: SNB-75 CNS
[12] = test system: CCRF-CEM leukemia
[13] = test system: COLO 205 colon
[14] = test system: 786-0 renal
[15] = test system: SK-MEL-2 melanoma
[16] = test system: K-562 leukemia
[17] = test system: SNB-19 CNS
[18] = test system: TK-10 renal
[19] = test system: MDA-MB-231 breast
[20] = test system: HCT-116 colon
[21] = test system: KM12 colon
[22] = test system: BT-549 breast
[23] = test system: HCC-2998 colon
[24] = test system: SW-620 colon
[25] = test system: U251 CNS
[26] = test system: HT29 colon
[27] = test system: MOLT-4 leukemia
[28] = test system: UACC-62 melanoma
[29] = test system: ACHN renal

Question: What does the source list for `C#Cc1cccc(NC(=O)Nc2ccccc2NC(=O)CCl)c1`?
Answer: GI50 [1]: 23.8 µM; TGI [1]: > 82.5 µM; GI50 [2]: 17.4 µM; TGI [2]: 41.9 µM; GI50 [3]: 14.8 µM; TGI [3]: 44 µM; GI50 [4]: 23.7 µM; TGI [4]: > 82.5 µM; GI50 [5]: 21.5 µM; TGI [5]: 58 µM; GI50 [6]: 15 µM; TGI [6]: 31.5 µM; GI50 [7]: 17.1 µM; TGI [7]: 56.1 µM; GI50 [8]: 13.6 µM; TGI [8]: 28 µM; GI50 [9]: 13.3 µM; TGI [9]: 25.6 µM; GI50 [10]: 15.2 µM; TGI [10]: 43.2 µM; GI50 [11]: 9.11 µM; TGI [11]: 19.8 µM; GI50 [12]: 20.8 µM; TGI [12]: > 82.5 µM; GI50 [13]: 29 µM; TGI [13]: > 82.5 µM; GI50 [14]: 29.7 µM; TGI [14]: > 82.5 µM; GI50 [15]: 22 µM; TGI [15]: 63.9 µM; GI50 [16]: 22.8 µM; TGI [16]: > 82.5 µM; GI50 [17]: 32 µM; TGI [17]: > 82.5 µM; GI50 [18]: 25.5 µM; TGI [18]: > 82.5 µM; GI50 [19]: 16.6 µM; TGI [19]: 34.6 µM; GI50 [20]: 24.5 µM; TGI [20]: > 82.5 µM; GI50 [21]: 14.2 µM; TGI [21]: 26.5 µM; GI50 [22]: 20 µM; TGI [22]: 65.5 µM; GI50 [23]: 15.3 µM; TGI [23]: 29.8 µM; GI50 [24]: 19.3 µM; TGI [24]: 45.2 µM; GI50 [25]: 15.4 µM; TGI [25]: 33.1 µM; GI50 [26]: 27.6 µM; TGI [26]: > 82.5 µM; GI50 [27]: 25.6 µM; TGI [27]: > 82.5 µM; GI50 [28]: 13.8 µM; TGI [28]: 25.8 µM; GI50 [29]: 14.5 µM
